In ChEMBL document CHEMBL1157477, “Cembrane diterpenoids from the taiwanese soft coral Sarcophyton stolidotum” (2008):
Converted amounts (≈) assume the structure as drawn. The source made the active and inactive calls. The calls are words filed in the database; no cut-off is given here.

What was measured:
Assay type in all cases: functional
HeLa = assay: Cytotoxicity against human HeLa cells at 10 ug/ml by MTT assay
WiDr = assay: Cytotoxicity against human WiDr cells at 10 ug/ml by MTT assay
Daoy = assay: Cytotoxicity against human Daoy cells

## C/C1=C/C/C=C(\C)C(=O)C[C@H](C(C)C)[C@H]2C=C(CC(=O)C1)C(=O)O2 [SARCOSTOLIDE F]
HeLa
  inhibition at 10 µg/mL: 7.32%
WiDr
  inhibition at 10 µg/mL: 29.8%
Daoy
  Activity: inactive

## C/C1=C\C(=O)CC2=C[C@@H](OC2=O)[C@@H](C(C)C)CC(=O)/C(C)=C/CC1 [SARCOSTOLIDE C]
HeLa
  inhibition at 10 µg/mL: 1.65%
WiDr
  inhibition at 10 µg/mL: 19.4%
Daoy
  Activity: inactive

## C/C1=C/C(=O)CC2=C[C@@H](OC2=O)[C@@H](C(C)C)CC(=O)/C(C)=C/CC1 [SARCOSTOLIDE B]
HeLa
  inhibition at 10 µg/mL: 5.88%
WiDr
  inhibition at 10 µg/mL: 8.31%
Daoy
  Activity: inactive

## C/C1=C/C(=O)CC2=C[C@@H](OC2=O)[C@H](C(C)C)CC(=O)/C(C)=C/CC1 [SARCOSTOLIDE D]
HeLa
  inhibition at 10 µg/mL: 11.1%
WiDr
  inhibition at 10 µg/mL: 29.1%
Daoy
  Activity: inactive

## C/C1=C\CC[C@@H](C)CC(=O)CC2=C[C@@H](OC2=O)[C@@H](C(C)C)CC1=O [SARCOSTOLIDE G]
HeLa
  inhibition at 10 µg/mL: 18.4%
WiDr
  inhibition at 10 µg/mL: 20.1%
Daoy
  Activity: inactive

## C/C1=C/CC/C(C)=C/C(=O)CC2=C[C@@H](OC2=O)[C@@H](C(C)C)CC1=O [SARCOSTOLIDE A]
HeLa
  inhibition at 10 µg/mL: 22.3%
WiDr
  inhibition at 10 µg/mL: 20%
Daoy
  Activity: inactive

## C/C1=C/C=C/[C@H](C)C(=O)C[C@H](C(C)C)[C@H]2C=C(CC(=O)C1)C(=O)O2 [SARCOSTOLIDE E]
HeLa
  inhibition at 10 µg/mL: 16.8%
WiDr
  inhibition at 10 µg/mL: 27.5%
Daoy; read-out: ED50 (the source's name)
  EC50: 5.5 µg/mL (≈ 16.6 µM)
